“Also recorded” adds a separate entry of the source.
Assays:
[1] = Overall in vitro and in vivo tests of tables 1-9 (fibroblast growth, ATP, collagen, IL-8, hydration, lipids, lipid peroxides, melanin); conditions: in association with melatonin, concentrations being equal
Method: Fibroblasts of NB1RGB strain were used (2×10^5 cell/ml) and suspended in the α-MEM culture medium placed in 10 Petri dishes (containing 10% foetal bovine serum (FBS), 100 units/ml penicillin and 100 µg/ml streptomycin). while two were left as control. All products were additioned in a 1 μg/ml concentration. All biochemical processes require energy that is accumulated in the form of ATP (adenosyn-triphosphate). […] Out of the 9 culture-containing Petri dishes used, 8 were additioned with 1% μg/ml of the different substances to be tested, whereas one served as control. A continuous and regular collagen synthesis is of fundamental importance for the ECM (extracellular matrix) structure, and therefore for skin elasticity and compactness and wrinkle reduction. Collagen 1 presence was verified with the use of specific antibodies on all ten cell cultures, 8 of which enriched with 1% μl/ml of the various substances directly introduced in the culture medium, and one as control. Collected blood aliquots, pre-supplemented and non-supplemented with the components under study (1 μl/ml) were subdivided into 10 Petri dishes, 8 of which were further supplemented with 10 μl/ml Tumor Necrose Factor a (TNF-α), and one left as control. […] IL-8 amounts were determined photometrically, by specific antibodies. […] During the checking, skin surface lipids and hydration were verified by 3C System. Lipid peroxides were checked with the Pugliesi method (Pugliesi P. (1990) Assessment of Antiaging Products. In: W.C. […] This experiment was meant to assess the protective activity of these compounds if and when taken orally. […] (International Units)/ml penicillin and […] streptomycin) containing 2 mM teophylline. The suspension was subdivided into 7 500-μl portions. To each portion, placed in suitable bars, […] of the various mixtures of active agents were added. Of each mixture 6 samples were prepared.

[2] = system: anagen phase of hair cycle; assay: Action on the anagen phase of hair cycle: lotions A, B, C on the scalp of volunteers for 60 days; assay type: in vivo, human; conditions: topical lotion morning and evening
Description: Thirty volunteers (15 women and 15 men) suffering from general hair problems: slight thinning out, thinning, continual loss of hair and occasional formation of forms of alopecia restricted to scalp areas, were subjected to the treatment.
All subjects were given, under double-blind conditions, a lotion to be applied morning and evening by light friction, in the amount of 5/6 drops poured on the various areas and deemed sufficient for the treatment of the entire scalp.
The study lasted 60 days.
At day 0, an area of about 1 cm^2 was delimited in the anteroparietal zone of the scalp, from which hair was carefully removed. Removed hair were weighted to verify the mass thereof, and the number of follicles present was counted by a suitable grid.
At day +60, the number and weight of regrown hair were reassessed, again checking the number of follicles present.

nerve cell cultures = assay: Preliminary investigation of cell vitality and toxicity on nerve cell cultures (in vitro cellular models); assay type: cell-based

| Compound | enhancement of melatonin action (synergy) [1] | further results |
| --- | --- | --- |
| CC1=NCC[C@@H](C(=O)O)N1 [ectoine] | significantly enhance the bioprotective activity of melatonin | – |
| CC1=C[C@H](O)CC(C)(C)[C@H]1/C=C/C(C)=C/C=C/C(C)=C/C=C/C=C(C)/C=C/C=C(C)/C=C/C1=C(C)C[C@@H](O)CC1(C)C [lutein] | significantly enhance the bioprotective activity of melatonin; also recorded: further enhance the positive effects of melatonin | – |
| COc1ccc2[nH]cc(CCNC(C)=O)c2c1 [melatonin] | – | anagen phase of hair / hair regrowth [2]: causes an increase of the anagen phase of hair, thereby enhancing its regrowth; hair weight (volume, body) [2]: without however exerting an effect on the hair weight itself; toxicity / reduction of cell vitality (nerve cell cultures; increasing concentrations, 3-mg melatonin alone vs association of melatonin, carotenoid, immunostimulant each 11-mg): cell vitality tends to reduce; also recorded: far more toxic; cytoprotective action towards free radicals of Oxygen (ROS), cell vitality (nerve cell cultures; suitable concentrations, in vitro model): capable of preserving cell vitality |
| beta-glucan | significantly enhance the bioprotective activity of melatonin; also recorded: tendentially more active than ectoine | – |
| CC1=C(/C=C/C(C)=C/C=C/C(C)=C/C=C/C=C(C)/C=C/C=C(C)/C=C/C2=C(C)CCCC2(C)C)C(C)(C)CCC1 [beta-carotene] | significantly enhance the bioprotective activity of melatonin; also recorded: further enhance the positive effects of melatonin | – |
| O=C(O)CCCCC1CCSS1 (stereo not drawn) [lipoic acid] | significantly enhance the bioprotective activity of melatonin; also recorded: further enhance the positive effects of melatonin; also recorded: tendentially more active than carotenoids | – |
